Reference: US9371290B2, “Pyridazinone compounds” (BIOTIE THERAPIES CORPORATION, priority 2011, dated 2016)

biological target: T1, Recombinant human VAP-1 SSAO (Homo sapiens, UniProt Q16853); assay: In vitro inhibition of VAP-1 SSAO activity (coupled colorimetric method, benzylamine substrate); type: biochemical; settings: CHO cell lysate, 1 mM benzylamine, read-out: VAP-1 SSAO Inhibitory activity IC50
T1 construct: made in house; host or cells: Chinese Hamster Ovary (CHO) cells; clarified NP40 cell lysate used directly
T1 sequence (Q16853 1-763): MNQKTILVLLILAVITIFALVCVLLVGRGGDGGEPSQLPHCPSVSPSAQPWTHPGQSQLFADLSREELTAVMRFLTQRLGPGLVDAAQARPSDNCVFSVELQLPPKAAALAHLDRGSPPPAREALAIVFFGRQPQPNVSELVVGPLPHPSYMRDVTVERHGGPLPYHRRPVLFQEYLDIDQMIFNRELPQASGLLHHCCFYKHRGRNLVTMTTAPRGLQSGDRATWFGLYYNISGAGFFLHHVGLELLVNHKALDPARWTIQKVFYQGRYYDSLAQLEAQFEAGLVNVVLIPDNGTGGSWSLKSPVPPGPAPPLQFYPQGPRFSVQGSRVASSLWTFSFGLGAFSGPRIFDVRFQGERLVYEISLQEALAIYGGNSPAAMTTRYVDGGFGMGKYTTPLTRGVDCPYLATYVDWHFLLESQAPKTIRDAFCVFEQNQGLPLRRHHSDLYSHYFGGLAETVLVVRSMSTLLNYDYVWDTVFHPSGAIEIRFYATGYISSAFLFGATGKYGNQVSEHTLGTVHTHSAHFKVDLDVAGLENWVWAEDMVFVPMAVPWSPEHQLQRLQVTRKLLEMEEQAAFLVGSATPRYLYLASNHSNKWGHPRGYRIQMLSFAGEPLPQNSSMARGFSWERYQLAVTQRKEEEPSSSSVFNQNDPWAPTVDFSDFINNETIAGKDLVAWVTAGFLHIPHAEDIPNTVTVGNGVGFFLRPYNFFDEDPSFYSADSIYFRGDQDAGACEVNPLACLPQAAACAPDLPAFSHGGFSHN
Experimental: VAP-1 SSAO activity was measured using the coupled colorimetric method essentially as described for monoamine oxidase and related enzymes (Holt, A., et al., Anal. Biochem. 244:384-392 (1997)). Recombinant human VAP-1 SSAO expressed in Chinese Hamster Ovary (CHO) cells was used as a source of VAP-1 SSAO for activity measurements. Native CHO cells have negligible SSAO activity. These cells and their culture have previously been described (Smith, D. J., et al., J. Exp. Med. 188:17-27 (1998)). A cell lysate was prepared by suspending approximately 3.6×10^8 cells in 25 ml lysis buffer (150 mM NaCl, 10 mM Tris-Base pH 7.2, 1.5 mM MgCl2, 1% NP40) and incubating at 4° C. overnight on a rotating table. The lysate was clarified by centrifugation at 18 000 g for 5 min at room temperature and the supernatant used directly in the assay. The VAP-1 SSAO assay was performed in 96 well microtitre plates as follows. To each well was added a predetermined amount of inhibitor if required. The amount of inhibitor varied in each assay but was generally at a final concentration of between 1 nM and 50 μM. Controls lacked inhibitor. The inhibitor was in a total volume of 20 μl in water. The following reagents were then added. 0.2 M potassium phosphate buffer pH 7.6 to a total reaction volume of 200 μl, 50 μl of freshly made chromogenic solution containing 1 mM vanillic acid, 500 μM 4-aminoantipyrine and 8 U/ml horseradish peroxidase and an amount of CHO cell lysate containing VAP-1 SSAO that caused a change of 0.6 A490 per h. This was within the linear response range of the assay. The plates were incubated for 30 min at 37° C. and the background absorbance measured at 490 nm using a Wallac Victor II multilabel counter. To initiate the enzyme reaction 20 μl 10 mM benzylamine (final concentration=1 mM) was added and the plate incubated for 1 h at 37° C. The increase in absorbance, reflecting VAP-1 SSAO activity, was measured at 490 nm. Inhibition was presented as percent inhibition compared to control after correcting for background absorbance and IC50 values calculated using GraphPad Prism.

Row | IC50 [nM] | Compound
1 | 2000 | O=c1cc(NCCN2CCOCC2)c(-c2nc[nH]n2)nn1-c1ccccc1 [Compound 39]
2 | 15000 | CN(C)CCNc1cc(=O)n(-c2ccccc2)nc1-c1nc[nH]n1 [Compound 13]
3 | 31 | CN1CCN(c2ccc(Nc3cc(=O)n(-c4ccc(Cl)cc4)cc3-c3nc[nH]n3)cc2)CC1 [Compound 81]
4 | 70 | CN1CCN(c2ccc(Nc3cc(=O)n(-c4ccc(Cl)cc4)nc3-c3nc[nH]n3)cc2)CC1 [Compound 63]
5 | 180 | CN1CCC(Nc2cc(=O)n(-c3ccc(Cl)cc3)nc2-c2nc[nH]n2)CC1 [Compound 68]
6 | 800 | NCCCNc1cc(=O)n(-c2ccc(Cl)cc2)nc1-c1nc[nH]n1 [Compound 78]

system: not given; assay: not given; settings: not given

Row | Compound | melting point [°C]
7 | O=c1cc(Oc2ccccc2)c(-c2cccc(C(F)(F)F)c2)nn1-c1ccccc1 [Compound 21, 5-phenoxy-2-phenyl-6-[(3-trifluoromethyl)phenyl]pyridazin-3(2H)-one] | 146 to 148
8 | Cn1nccc1-c1nn(-c2ccccc2)c(=O)cc1Oc1ccccc1 [Compound 1] | 118 to 119
9 | O=c1cc(Oc2ccccc2)c(-c2cccnc2)nn1-c1ccccc1 [Compound 9] | 155 to 157
10 | CN1CCN(c2cc(=O)n(-c3ccccc3)nc2C(N)=O)CC1.Cl | 248 to 250
11 | COc1cc(=O)n(-c2ccccc2)nc1-c1nc[nH]n1 [Compound 31] | 235 to 240
12 | Cc1ccsc1-c1nn(-c2ccccc2)c(=O)cc1Oc1ccccc1 [Compound 20] | 212 to 214
13 | CCCc1cn(-c2cc(=O)n(-c3ccccc3)nc2C(=O)OC)nn1 [Compound 24] | 146 to 148
14 | O=c1cc(Oc2ccccc2)c(-c2ccco2)nn1-c1ccccc1 [Compound 18] | 232 to 234
15 | Cc1noc(C)c1-c1nn(-c2ccccc2)c(=O)cc1Oc1ccccc1 [Compound 19] | 122 to 124
16 | CN(C)CCNc1cc(=O)n(-c2ccccc2)nc1-c1nc[nH]n1 [Compound 13] | 211 to 214
17 | COC(=O)c1nn(-c2ccccc2)c(=O)cc1-n1cc(-c2ccccc2)nn1 [Compound 6] | 240 to 248
18 | N=CNNC(=O)c1nn(-c2ccccc2)c(=O)cc1Sc1ccccc1 [Compound 8, N^2-iminomethyl-6-oxo-4-phenylsulfanyl-1-phenyl-1,6-dihydropyridazin-3-carbohydrazide] | 236 to 238
19 | O=c1cc(Oc2ccccc2)c(-c2cn[nH]c2)nn1-c1ccccc1 [Compound 30] | 245 to 247
20 | COc1ccc(-n2nc(-c3nc[nH]n3)c(Oc3ccccc3)cc2=O)cc1 [Compound 26] | 284 to 286
21 | CN(C)CCNC(=O)c1nn(-c2ccccc2)c(=O)cc1Oc1ccccc1.Cl | 138 to 141
22 | O=c1cc(Oc2ccc(Cl)cc2)c(-c2nc[nH]n2)nn1-c1ccccc1 [Compound 15] | 235 to 240
23 | CN(C)/C=N/C(=O)c1nn(-c2ccccc2)c(=O)cc1Oc1ccccc1 [Compound 23, N,N-dimethyl-N′-[(6-oxo-4-phenoxy-1-phenyl-1,6-dihydropyridazin-3-yl)carbonyl]formamidine] | 175 to 176
24 | CCOC(=O)c1cn(-c2cc(=O)n(-c3ccccc3)nc2C(=O)OC)nn1 [Compound 7] | 165 to 170
25 | O=c1cc(O)c(-c2nc[nH]n2)nn1-c1ccccc1 [Compound 3] | 218 to 220

Second part, the compound after the results:

Row | melting point [°C] | Compound
26 | 243 to 245 | CN(C)c1ccc(Nc2cc(=O)n(-c3cccc(Cl)c3)nc2-c2nc[nH]n2)cc1 [Compound 72]
27 | 251 to 258 | O=c1cc(NCCN2CCOCC2)c(-c2nc[nH]n2)nn1-c1ccccc1 [Compound 39]
28 | 278 to 281 | Nc1ccc(Nc2cc(=O)n(-c3ccc(Cl)cc3)nc2-c2nc[nH]n2)cc1 [Compound 66]
29 | 192 to 195 | CCCc1cn(-c2cc(=O)n(-c3ccccc3)nc2C#N)nn1 [Compound 32, 6-oxo-1-phenyl-4-(4-propyl-1H-1,2,3-triazol-1-yl)-1,6-dihydropyridazine-3-carbonitrile]
30 | 218 to 221 | CN1CCN(c2ccc(Nc3cc(=O)n(-c4ccc(Cl)cc4)cc3-c3nc[nH]n3)cc2)CC1 [Compound 81]
31 | 212 to 224 | O=c1cc(Nc2ccc(N3CCNCC3)cc2)c(-c2nc[nH]n2)nn1-c1ccc(Cl)cc1 [Compound 80, 2-(4-chlorophenyl)-5-{[4-(4-piperazine-1-yl)phenyl]amino}-6-(1H-1,2,4-triazol-3-yl)-3(2H)-pyridazinone]
32 | 235 to 237 | Cn1cnc(-c2nn(-c3ccccc3)c(=O)cc2Oc2ccccc2)n1 [Compound 41]
33 | 301 to 303 | O=c1cc(N2CCCC2)c(-c2nc[nH]n2)nn1-c1ccccc1 [Compound 44]
34 | 307 to 310 | CC(C)Nc1cc(=O)n(-c2ccccc2)cc1-c1nc[nH]n1 [Compound 54, 4-isopropylamino-1-phenyl-5-(1H-1,2,4-triazol-3-yl)-pyridin-2(1H)-one]
35 | 80 to 82 | NNC(=O)c1nn(-c2ccccc2)c(=O)cc1Oc1ccccc1 [Compound 76]
36 | 245 to 247 | Cc1nc(-c2nn(-c3ccccc3)c(=O)cc2Oc2ccccc2)n[nH]1 [Compound 51, 5-phenoxy-2-phenyl-6-(5-methyl-1H-1,2,4-triazol-3-yl)-3(2H)-pyridazinone]
37 | 227 to 229 | CN1CCN(c2ccc(Nc3cc(=O)n(-c4ccc(Cl)cc4)nc3-c3nc[nH]n3)cc2)CC1 [Compound 63]
38 | 287 to 290 | O=c1cc(Nc2ccccc2)c(-c2nc[nH]n2)nn1-c1ccccc1 [Compound 40]
39 | 342 to 344 | O=c1cc(Nc2ccncc2)c(-c2nc[nH]n2)nn1-c1ccccc1 [Compound 53]
40 | 227 to 230 | CN1CCC(Nc2cc(=O)n(-c3ccc(Cl)cc3)nc2-c2nc[nH]n2)CC1 [Compound 68]
41 | 265 to 267 | O=c1cc(Oc2ccccc2)c(-c2nc[nH]n2)nn1-c1ccccc1F [Compound 45]
42 | 257 to 258 | O=c1cc(Oc2ccccc2)c(-c2nc[nH]n2)nn1-c1cccc(C(F)(F)F)c1 [Compound 33]
43 | 270 to 272 | CN1CCC(Nc2cc(=O)n(-c3ccc(Cl)cc3)nc2-c2nc[nH]n2)CC1 [Compound 67]
44 | 244 to 246 | O=c1cc(Nc2ccccc2)c(-c2nc[nH]n2)nn1-c1ccc(Cl)cc1 [Compound 64]
45 | 227 to 230 | COc1ccc(Nc2cc(=O)n(-c3ccc(Cl)cc3)nc2-c2nc[nH]n2)cc1OC [Compound 60]
46 | 233 to 235 | O=c1cc(Nc2ccccc2)c(-c2nc[nH]n2)nn1-c1cccc(F)c1 [Compound 69]
47 | 238 to 240 | [N-]=[N+]=Nc1cc(=O)n(-c2ccccc2)nc1C1=NCCN1 [Compound 47, 5-Azido-6-(4,5-dihydro-1H-imidazol-2-yl)-2-phenylpyridazin-3(2H)-one]
48 | 285 to 290 | NCCCNc1cc(=O)n(-c2ccc(Cl)cc2)nc1-c1nc[nH]n1 [Compound 78]
49 | 210 to 212 | C#CCN(C)c1cc(=O)n(-c2ccc(Cl)cc2)nc1-c1nc[nH]n1 [Compound 82]
50 | 303 to 306 | N#CCNc1cc(=O)n(-c2ccc(Cl)cc2)nc1-c1nc[nH]n1 [Compound 79]
